Experimental data as given in patent US9334289B2, “Cephem compound having catechol or pseudo-catechol structure” (SHIONOGI & CO., LTD., priority 2011, dated 2016).
Converted amounts (≈) assume the structure as drawn.

test system: P. aeruginosa SR24837; test: MIC, CLSI broth microdilution, Test Example 1; format: cell-based; settings: Pseudomonas aeruginosa, SR24837, read-out: Minimum Inhibitory Concentration (MIC) P. aeruginosa SR24837
Method: (§1) Measurement of Minimum Inhibitory Concentration (MIC: μg/mL) was conducted according to CLSI (Clinical and Laboratory Standards Institute) method, and the amount of bacteria for inoculation was 5×10^5 cfu/mL, and cation-adjusted Mueller Hinton broth containing human apo-transferrin was used as a test medium, and the experiment was conducted using broth microdilution method. The bacteria used are listed below.

Compound | MIC [µg/mL]
CC(C)(O/N=C(\C(=O)N[C@@H]1C(=O)N2C(c3nnn[n-]3)=C(C[n+]3ccc(CNC(=O)c4ccc(O)c(O)c4Cl)cc3)CS[C@H]12)c1csc(N)n1)C(=O)[O-].[Na+] [Compound I-71] | 1

same assay, conditions: Pseudomonas aeruginosa, SR24837; PER-1 ESBL producing strain; cation-adjusted Mueller Hinton broth containing human apo-transferrin; 5×10^5 cfu/mL; read-out: Minimum Inhibitory Concentration (MIC) P. aeruginosa SR24837

MIC [µg/mL] | Compound
0.5 | CC(C)(O/N=C(\C(=O)N[C@@H]1C(=O)N2C(c3nnn[n-]3)=C(Cn3cc4ccc(CNC(=O)c5ccc(O)c(O)c5Cl)c[n+]4c3)CS[C@H]12)c1csc(N)n1)C(=O)[O-].[Na+] [Compound I-58]
0.25 | CC(C)(O/N=C(\C(=O)N[C@@H]1C(=O)N2C(c3nnn[n-]3)=C(C[n+]3cccc(NC(=O)c4ccc(O)c(O)c4Cl)c3)CS[C@H]12)c1csc(N)n1)C(=O)[O-].[Na+] [Compound I-73]
0.5 | CC(C)(O/N=C(\C(=O)N[C@@H]1C(=O)N2C(c3nnn[n-]3)=C(Cn3cc[n+](CCNC(=O)c4ccc(O)c(O)c4Cl)c3)CS[C@H]12)c1csc(N)n1)C(=O)[O-].[Na+] [Compound I-74]
0.063 (≈ 0.0791 µM) | CC(C)(O/N=C(\C(=O)N[C@@H]1C(=O)N2C(c3nnn[nH]3)=C(C[n+]3cccc4c3CCCN4C(=O)c3ccc(O)c(O)c3Cl)CS[C@H]12)c1csc(N)n1)C(=O)[O-] [Compound I-75]

test system: P. aeruginosa SR27060; test: MIC, CLSI broth microdilution, Test Example 1; format: cell-based; settings: Pseudomonas aeruginosa, SR27060, read-out: Minimum Inhibitory Concentration (MIC) P. aeruginosa SR27060
Method: as §1

Compound | MIC [µg/mL]
CC(C)(O/N=C(\C(=O)N[C@@H]1C(=O)N2C(c3nnn[n-]3)=C(C[n+]3ccc(CNC(=O)c4ccc(O)c(O)c4Cl)cc3)CS[C@H]12)c1csc(N)n1)C(=O)[O-].[Na+] [Compound I-71] | 0.25

same assay, conditions: Pseudomonas aeruginosa, SR27060; IMP-1 MBL producing strain (carbapenem resistance strain); cation-adjusted Mueller Hinton broth containing human apo-transferrin; 5×10^5 cfu/mL; read-out: Minimum Inhibitory Concentration (MIC) P. aeruginosa SR27060

MIC [µg/mL] | Compound
0.5 | CC(C)(O/N=C(\C(=O)N[C@@H]1C(=O)N2C(c3nnn[n-]3)=C(Cn3cc4ccc(CNC(=O)c5ccc(O)c(O)c5Cl)c[n+]4c3)CS[C@H]12)c1csc(N)n1)C(=O)[O-].[Na+] [Compound I-58]
0.25 | CC(C)(O/N=C(\C(=O)N[C@@H]1C(=O)N2C(c3nnn[n-]3)=C(C[n+]3cccc(NC(=O)c4ccc(O)c(O)c4Cl)c3)CS[C@H]12)c1csc(N)n1)C(=O)[O-].[Na+] [Compound I-73]
0.25 | CC(C)(O/N=C(\C(=O)N[C@@H]1C(=O)N2C(c3nnn[n-]3)=C(Cn3cc[n+](CCNC(=O)c4ccc(O)c(O)c4Cl)c3)CS[C@H]12)c1csc(N)n1)C(=O)[O-].[Na+] [Compound I-74]
0.25 (≈ 0.314 µM) | CC(C)(O/N=C(\C(=O)N[C@@H]1C(=O)N2C(c3nnn[nH]3)=C(C[n+]3cccc4c3CCCN4C(=O)c3ccc(O)c(O)c3Cl)CS[C@H]12)c1csc(N)n1)C(=O)[O-] [Compound I-75]

test system: E. coli ATCCBAA-200; test: MIC, CLSI broth microdilution, Test Example 1; format: cell-based; settings: Escherichia coli, ATCCBAA200; SHV-4 ESBL producing strain; cation-adjusted Mueller Hinton broth containing human apo-transferrin; 5×10^5 cfu/mL; read-out: Minimum Inhibitory Concentration (MIC) E. coli ATCC BAA-200
Method: as §1

Compound | MIC [µg/mL]
CC(C)(O/N=C(\C(=O)N[C@@H]1C(=O)N2C(c3nnn[n-]3)=C(C[n+]3ccc(CNC(=O)c4ccc(O)c(O)c4Cl)cc3)CS[C@H]12)c1csc(N)n1)C(=O)[O-].[Na+] [Compound I-71] | 0.5
CC(C)(O/N=C(\C(=O)N[C@@H]1C(=O)N2C(c3nnn[nH]3)=C(C[n+]3cccc4c3CCCN4C(=O)c3ccc(O)c(O)c3Cl)CS[C@H]12)c1csc(N)n1)C(=O)[O-] [Compound I-75] | 0.5 (≈ 0.628 µM)

The next lines start with the values.

MIC [µg/mL] | Compound
0.5 | CC(C)(O/N=C(\C(=O)N[C@@H]1C(=O)N2C(c3nnn[n-]3)=C(Cn3cc4ccc(CNC(=O)c5ccc(O)c(O)c5Cl)c[n+]4c3)CS[C@H]12)c1csc(N)n1)C(=O)[O-].[Na+] [Compound I-58]
0.125 | CC(C)(O/N=C(\C(=O)N[C@@H]1C(=O)N2C(c3nnn[n-]3)=C(C[n+]3cccc(NC(=O)c4ccc(O)c(O)c4Cl)c3)CS[C@H]12)c1csc(N)n1)C(=O)[O-].[Na+] [Compound I-73]
0.125 | CC(C)(O/N=C(\C(=O)N[C@@H]1C(=O)N2C(c3nnn[n-]3)=C(Cn3cc[n+](CCNC(=O)c4ccc(O)c(O)c4Cl)c3)CS[C@H]12)c1csc(N)n1)C(=O)[O-].[Na+] [Compound I-74]

test system: A. baumannii SR27323; test: MIC, CLSI broth microdilution, Test Example 1; format: cell-based; settings: Acinetobacter baumannii, SR27323, read-out: Minimum Inhibitory Concentration (MIC) A. baumannii SR27323
Method: as §1

Compound | MIC [µg/mL]
CC(C)(O/N=C(\C(=O)N[C@@H]1C(=O)N2C(c3nnn[n-]3)=C(C[n+]3ccc(CNC(=O)c4ccc(O)c(O)c4Cl)cc3)CS[C@H]12)c1csc(N)n1)C(=O)[O-].[Na+] [Compound I-71] | 1

same assay, conditions: Acinetobacter baumannii, SR27323; OXA-23, OXA-58 carbapenemase producing strain; cation-adjusted Mueller Hinton broth containing human apo-transferrin; 5×10^5 cfu/mL; read-out: Minimum Inhibitory Concentration (MIC) A. baumannii SR27323

MIC [µg/mL] | Compound
1 | CC(C)(O/N=C(\C(=O)N[C@@H]1C(=O)N2C(c3nnn[n-]3)=C(Cn3cc4ccc(CNC(=O)c5ccc(O)c(O)c5Cl)c[n+]4c3)CS[C@H]12)c1csc(N)n1)C(=O)[O-].[Na+] [Compound I-58]
0.25 | CC(C)(O/N=C(\C(=O)N[C@@H]1C(=O)N2C(c3nnn[n-]3)=C(C[n+]3cccc(NC(=O)c4ccc(O)c(O)c4Cl)c3)CS[C@H]12)c1csc(N)n1)C(=O)[O-].[Na+] [Compound I-73]
0.5 | CC(C)(O/N=C(\C(=O)N[C@@H]1C(=O)N2C(c3nnn[n-]3)=C(Cn3cc[n+](CCNC(=O)c4ccc(O)c(O)c4Cl)c3)CS[C@H]12)c1csc(N)n1)C(=O)[O-].[Na+] [Compound I-74]
1 (≈ 1.26 µM) | CC(C)(O/N=C(\C(=O)N[C@@H]1C(=O)N2C(c3nnn[nH]3)=C(C[n+]3cccc4c3CCCN4C(=O)c3ccc(O)c(O)c3Cl)CS[C@H]12)c1csc(N)n1)C(=O)[O-] [Compound I-75]

test system: K. pneumoniae ATCCBAA-1705; test: MIC, CLSI broth microdilution, Test Example 1; format: cell-based; settings: Klebsiella pneumoniae, ATCCBAA1705, read-out: Minimum Inhibitory Concentration (MIC) K. pneumoniae ATCCBAA-1705
Method: as §1

Compound | MIC [µg/mL]
CC(C)(O/N=C(\C(=O)N[C@@H]1C(=O)N2C(c3nnn[n-]3)=C(C[n+]3ccc(CNC(=O)c4ccc(O)c(O)c4Cl)cc3)CS[C@H]12)c1csc(N)n1)C(=O)[O-].[Na+] [Compound I-71] | ≤ 0.031

same assay, conditions: Klebsiella pneumoniae, ATCCBAA1705; KPC-2 carbapenemase producing strain; cation-adjusted Mueller Hinton broth containing human apo-transferrin; 5×10^5 cfu/mL; read-out: Minimum Inhibitory Concentration (MIC) K. pneumoniae ATCCBAA-1705

MIC [µg/mL] | Compound
≤ 0.031 | CC(C)(O/N=C(\C(=O)N[C@@H]1C(=O)N2C(c3nnn[n-]3)=C(Cn3cc4ccc(CNC(=O)c5ccc(O)c(O)c5Cl)c[n+]4c3)CS[C@H]12)c1csc(N)n1)C(=O)[O-].[Na+] [Compound I-58]
≤ 0.031 | CC(C)(O/N=C(\C(=O)N[C@@H]1C(=O)N2C(c3nnn[n-]3)=C(C[n+]3cccc(NC(=O)c4ccc(O)c(O)c4Cl)c3)CS[C@H]12)c1csc(N)n1)C(=O)[O-].[Na+] [Compound I-73]
≤ 0.031 | CC(C)(O/N=C(\C(=O)N[C@@H]1C(=O)N2C(c3nnn[n-]3)=C(Cn3cc[n+](CCNC(=O)c4ccc(O)c(O)c4Cl)c3)CS[C@H]12)c1csc(N)n1)C(=O)[O-].[Na+] [Compound I-74]
0.063 (≈ 0.0791 µM) | CC(C)(O/N=C(\C(=O)N[C@@H]1C(=O)N2C(c3nnn[nH]3)=C(C[n+]3cccc4c3CCCN4C(=O)c3ccc(O)c(O)c3Cl)CS[C@H]12)c1csc(N)n1)C(=O)[O-] [Compound I-75]

test system: E. coli ATCCBAA-199; test: MIC, CLSI broth microdilution, Test Example 1; format: cell-based; settings: Escherichia coli, ATCCBAA199; SHV-3 ESBL producing strain; cation-adjusted Mueller Hinton broth containing human apo-transferrin; 5×10^5 cfu/mL; read-out: Minimum Inhibitory Concentration (MIC) E. coli ATCC BAA-199
Method: as §1

Compound | MIC [µg/mL]
CC(C)(O/N=C(\C(=O)N[C@@H]1C(=O)N2C(c3nnn[n-]3)=C(C[n+]3ccc(CNC(=O)c4ccc(O)c(O)c4Cl)cc3)CS[C@H]12)c1csc(N)n1)C(=O)[O-].[Na+] [Compound I-71] | 0.25
CC(C)(O/N=C(\C(=O)N[C@@H]1C(=O)N2C(c3nnn[nH]3)=C(C[n+]3cccc4c3CCCN4C(=O)c3ccc(O)c(O)c3Cl)CS[C@H]12)c1csc(N)n1)C(=O)[O-] [Compound I-75] | 0.125 (≈ 0.157 µM)

Next, values leading:

MIC [µg/mL] | Compound
0.25 | CC(C)(O/N=C(\C(=O)N[C@@H]1C(=O)N2C(c3nnn[n-]3)=C(Cn3cc4ccc(CNC(=O)c5ccc(O)c(O)c5Cl)c[n+]4c3)CS[C@H]12)c1csc(N)n1)C(=O)[O-].[Na+] [Compound I-58]
0.063 | CC(C)(O/N=C(\C(=O)N[C@@H]1C(=O)N2C(c3nnn[n-]3)=C(C[n+]3cccc(NC(=O)c4ccc(O)c(O)c4Cl)c3)CS[C@H]12)c1csc(N)n1)C(=O)[O-].[Na+] [Compound I-73]
0.063 | CC(C)(O/N=C(\C(=O)N[C@@H]1C(=O)N2C(c3nnn[n-]3)=C(Cn3cc[n+](CCNC(=O)c4ccc(O)c(O)c4Cl)c3)CS[C@H]12)c1csc(N)n1)C(=O)[O-].[Na+] [Compound I-74]

test system: P. aeruginosa SR24; test: MIC, CLSI broth microdilution, Test Example 1; format: cell-based; settings: Pseudomonas aeruginosa, SR24, read-out: Minimum Inhibitory Concentration (MIC) P. aeruginosa SR24

Compound | MIC [µg/mL]
CC(C)(O/N=C(\C(=O)N[C@@H]1C(=O)N2C(c3nnn[n-]3)=C(C[n+]3ccc(CNC(=O)c4ccc(O)c(O)c4Cl)cc3)CS[C@H]12)c1csc(N)n1)C(=O)[O-].[Na+] [Compound I-71] | 0.063

same assay, conditions: Pseudomonas aeruginosa, SR24; Ceftazidime resistance strain; cation-adjusted Mueller Hinton broth containing human apo-transferrin; 5×10^5 cfu/mL; read-out: Minimum Inhibitory Concentration (MIC) P. aeruginosa SR24

MIC [µg/mL] | Compound
0.125 | CC(C)(O/N=C(\C(=O)N[C@@H]1C(=O)N2C(c3nnn[n-]3)=C(Cn3cc4ccc(CNC(=O)c5ccc(O)c(O)c5Cl)c[n+]4c3)CS[C@H]12)c1csc(N)n1)C(=O)[O-].[Na+] [Compound I-58]
0.125 | CC(C)(O/N=C(\C(=O)N[C@@H]1C(=O)N2C(c3nnn[n-]3)=C(C[n+]3cccc(NC(=O)c4ccc(O)c(O)c4Cl)c3)CS[C@H]12)c1csc(N)n1)C(=O)[O-].[Na+] [Compound I-73]
0.125 | CC(C)(O/N=C(\C(=O)N[C@@H]1C(=O)N2C(c3nnn[n-]3)=C(Cn3cc[n+](CCNC(=O)c4ccc(O)c(O)c4Cl)c3)CS[C@H]12)c1csc(N)n1)C(=O)[O-].[Na+] [Compound I-74]
0.063 (≈ 0.0791 µM) | CC(C)(O/N=C(\C(=O)N[C@@H]1C(=O)N2C(c3nnn[nH]3)=C(C[n+]3cccc4c3CCCN4C(=O)c3ccc(O)c(O)c3Cl)CS[C@H]12)c1csc(N)n1)C(=O)[O-] [Compound I-75]
